Experiment: molar heat capacity at constant pressure
Conditions: 101.33 kPa, Crystal, Vacuum adiabatic calorimetry

O.O.OC[C@H]1O[C@H](O[C@H]2O[C@H](CO)[C@@H](O)[C@H](O)[C@H]2O)[C@H](O)[C@@H](O)[C@@H]1O [D-(+)-trehalose dihydrate]
Conditions | molar heat capacity at constant pressure [J/K/mol]
13.55 K | 6.385
14.6 K | 7.838
15 K | 8.51
15.59 K | 9.345
16.61 K | 10.96
17.67 K | 12.73
18.75 K | 14.64
19.81 K | 16.57
20 K | 16.78
20.85 K | 18.51
21.9 K | 20.53
22.93 K | 22.57
23.97 K | 24.62
25.02 K | 26.77
26.11 K | 29
27.24 K | 31.35
28.42 K | 33.79
29.57 K | 36.22
30 K | 37.06
30.71 K | 38.61
31.92 K | 41.15
33.18 K | 43.81
34.5 K | 46.58
35.82 K | 49.36
37.15 K | 52.14
38.46 K | 54.9
39.78 K | 57.62
40 K | 58.13
41.15 K | 60.45
42.54 K | 63.33
43.91 K | 66.14
45.27 K | 68.9
46.63 K | 71.67
48.02 K | 74.49
49.43 K | 77.32
50 K | 78.42
50.88 K | 80.24
52.39 K | 83.22
53.93 K | 86.27
55.51 K | 89.39
56.3 K | 90.95
57.99 K | 94.25
59.66 K | 97.53
60 K | 98.14
61.39 K | 100.85
63.18 K | 104.27
64.99 K | 107.74
66.83 K | 111.22
68.66 K | 114.67
70 K | 117.19
70.49 K | 118.11
72.33 K | 121.52
74.17 K | 124.94
76.04 K | 128.4
77.89 K | 131.81
79.75 K | 135.21
80 K | 135.65
81.63 K | 138.61
83.51 K | 142.01
85.4 K | 145.39
87.31 K | 148.81
89.22 K | 152.17
90 K | 153.54
91.14 K | 155.56
93.09 K | 158.95
95.06 K | 162.41
97.04 K | 165.84
98.99 K | 169.18
100 K | 170.91
100.9 K | 172.45
102.78 K | 175.65
104.63 K | 178.78
106.45 K | 181.89
108.25 K | 184.88
110 K | 187.82
110.03 K | 187.85
111.78 K | 190.76
113.51 K | 193.65
115.22 K | 196.52
116.9 K | 199.3
118.57 K | 202
120 K | 204.35
120.3 K | 204.92
122.1 K | 207.75
123.94 K | 210.99
125.83 K | 213.81
127.75 K | 216.99
129.72 K | 220.18
130 K | 220.6
131.71 K | 223.29
133.7 K | 226.52
135.72 K | 229.81
137.73 K | 232.95
139.73 K | 236.18
140 K | 236.57
141.73 K | 239.27
143.74 K | 242.56
145.72 K | 245.6
147.72 K | 248.78
149.71 K | 251.89
150 K | 252.32
151.71 K | 254.95
153.75 K | 258.14
155.79 K | 261.37
157.84 K | 264.6
159.89 K | 267.82
160 K | 267.93
161.93 K | 270.95
163.96 K | 274.13
165.96 K | 277.24
167.95 K | 280.33
169.92 K | 283.36
170 K | 283.46
171.88 K | 286.43
173.83 K | 289.42
175.76 K | 292.43
177.63 K | 295.3
179.56 K | 298.22
180 K | 299
181.49 K | 301.33
183.41 K | 304.3
185.35 K | 307.28
187.29 K | 310.3
189.22 K | 313.27
190 K | 314.53
191.14 K | 316.25
193.07 K | 319.27
195.02 K | 322.27
196.95 K | 325.32
198.87 K | 328.28
200 K | 330.09
200.8 K | 331.37
202.74 K | 334.35
204.67 K | 337.37
206.6 K | 340.29
208.53 K | 343.33
210 K | 345.69
210.48 K | 346.48
212.42 K | 349.61
214.34 K | 352.52
216.28 K | 355.42
220 K | 361.36
220.18 K | 361.71
222.12 K | 364.67
224.04 K | 367.73
225.95 K | 370.88
227.85 K | 373.65
229.74 K | 376.66
230 K | 377.12
231.62 K | 379.52
233.49 K | 382.68
235.35 K | 385.55
237.2 K | 388.42
239.04 K | 391.36
240 K | 392.98
240.87 K | 394.34
242.69 K | 397.3
244.52 K | 400.18
246.37 K | 403.04
248.24 K | 406.16
250 K | 408.95
250.12 K | 409.17
252 K | 412.27
253.8 K | 415.1
255.61 K | 417.77
257.43 K | 420.98
259.28 K | 423.94
260 K | 425.06
261.14 K | 426.99
263.01 K | 430.01
264.88 K | 433.05
266.76 K | 435.05
268.64 K | 439.07
270 K | 441.31
270.53 K | 442.21
272.4 K | 445.33
274.28 K | 448.34
276.17 K | 451.18
278.06 K | 454.48
279.95 K | 457.55
280 K | 457.7
281.85 K | 460.72
283.75 K | 463.95
285.66 K | 466.99
287.57 K | 470.12
289.49 K | 473.55
290 K | 474.26
291.41 K | 476.85
293.32 K | 479.88
295.23 K | 482.95
297.16 K | 486.02
298.15 K | 487.87
299.07 K | 489.45
300 K | 490.98
300.98 K | 492.63
